{"source": "patent US20150126368A1", "about": "“METHOD OF PROVIDING PLANT WITH STRESS RESISTANCE” (Nippon Soda Co., Ltd., priority 2012, published 2015)", "assay_type_in_all_cases": "in vivo", "key": {"[1]": {"tested_on": "Eustoma grandiflorum (breed: King of Snow)", "test": "Evaluation test for relief effects of high temperature injury on Eustoma grandiflorum", "details": "ascorbyl palmitate 600 ppm, sprayed 10 times; 2 weeks at 35° C. daylight/15° C. dark", "method": "Eustoma grandiflorum (breed: King of Snow) grown at a temperature of 22° C. and 16 hours under dark condition in a cell tray in the room was prepared. When an appropriately half were sprouted after seeding, a water dispersible granule of 30% ascorbyl palmitate was diluted with distilled water to a predetermined concentration, and the diluted solution was sprayed on the whole nursery plants in a sufficient amount. Subsequently, spraying by the same method was performed two times a week for the total of 10 times including the first application. Meanwhile, they were transferred to under conditions of 16 hours under a daylight condition at 35° C. and 8 hours under a dark condition at 15° C. at the expansion stage of a pair of true leaves 3 weeks after seeding, and allowed to grow for 2 weeks. Further, they were transferred to in a glass greenhouse and allowed to grow. Then naturalization was performed upon the expansion stage of two pairs of true leaves 8 week after seeding, and continuously allowed to grow in the greenhouse. Subsequently, the number of those bloomed out of the bolting plants was investigated."}, "[2]": {"tested_on": "Wheat (breed, Norin No. 61)", "test": "Test for green color maintenance effects (relief of high temperature injury) on wheat", "details": "appl. amount 1.5 g/m^2 at plant foot, 4 times at intervals of seven days, field", "description": "Wheat (breed, Norin No. 61, 15 plants/m^2/region, 2 reprications) grown in the field was used. A water dispersible granule of 30% ascorbyl palmitate in an amount described in Table 11 was applied to the plant foot 4 times at intervals of seven days from the next day of the ear emergence day in August. The leaf color index of top 4 to 5 leaves of each plant in a treatment region was investigated on September 6 to evaluate maintenance effects of leaf color as compared with that in the untreated region.\nLeaf color was evaluated by […] of leaf color indices of 1 (discolored at ¼ or less of the whole), 2 (discolored at ½ or less of the whole) and 3 (discolored at ¾ or more of the whole). From this, the mean leaf color index, and green color maintenance effects were computed by the following formula.\nGreen color maintenance effect=(leaf color index of untreated region)−(leaf color index of each treatment region))/(leaf color index of untreated region)×100"}, "[3]": {"tested_on": "tomato yellow leaf curl virus (TYLCV)", "test": "Test for symptom relief effects against tomato yellow leaf curl virus disease", "details": "for Onset percentage(%): tomato graft-inoculated, sprayed 4 times; for Onset percentage(%) / Onset inhibition percentage(%): 25 days; for Onset inhibition percentage(%): vs solvent DMF only; for Expectation value(%): expectation value of onset inhibition percentage", "method": "N,N-dimethylformamide based solutions were prepared according to the formulations shown in Table 18 to give chemical liquids for the tests.\nTomato nursery plants (breed: Momotaro) grown up to the 8 leaf stage in a greenhouse were prepared.\nTomato nursery plants suffering from tomato yellow leaf curl virus (TYLCV) were used as inoculation sources.\nA diseased plant was obliquely cut in round slices at the stem, and graft-inoculated to a tomato nursery plant. In order to prevent dryness, parafilm was wrapped around the grafted portion for protection.\nAfter the graft inoculation, the above chemical solution was sprayed on the stem and leaf part of the tomato nursery plant in a sufficient amount. Then, the above chemical solution was sprayed 3 times at intervals of about one week in a sufficient amount. Symptoms of tomato yellow leaf curl disease were investigated at an elapsed time of 25 days.\nSymptoms were evaluated by 5 levels of onset indices of 0 (with no onset) to 4 (fulminant).\nOnset inhibition percentages as compared with a region treated with solvent DMF only (Chemical solution 3) were computed by the following formula.\nOnset inhibition percentage=(onset index of region treated with solvent only)−(onset index of each treatment region))/(onset index of region treated with solvent only)×100\nFurther, the expectation values of onset inhibition percentages were computed based on the Colby's equation.\nThe Colby's equation is E=M+N−MN/100. In the equation, E represents the expectation value of an onset inhibition percentage (%), and M represents an onset inhibition percentage (%) calculated from measurements when the substance (A1) is used alone, and N represent an onset inhibition percentage (%) calculated from measurements when the substance (A2) is used alone."}}}
{"smiles": "CCCCCCCCCCCCCCCC(=O)OC[C@H](O)[C@H]1OC(=O)C(O)=C1O", "note": "[ascorbyl palmitate]", "values": [{"measurement": "Number of bloomed plants", "setting": "[1]", "result": 12}, {"measurement": "Number of bolting plants", "setting": "[1]", "result": 16}, {"measurement": "Percents of bloomed plants(%)", "setting": "[1]", "result": 75.0, "unit": "%"}, {"measurement": "mean leaf color index", "setting": "[2]; index 1 to 3", "result": 1.5}, {"measurement": "Green color maintenance effect(%)", "setting": "[2]; vs untreated region", "result": 25.0, "unit": "%"}, {"measurement": "Onset percentage(%)", "setting": "[3]; 500 ppm alone", "result": 30, "unit": "%"}, {"measurement": "Onset inhibition percentage(%)", "setting": "[3]; 500 ppm alone", "result": 40, "unit": "%"}, {"measurement": "Onset percentage(%)", "setting": "[3]; 1000 ppm alone", "result": 20, "unit": "%"}, {"measurement": "Onset inhibition percentage(%)", "setting": "[3]; 1000 ppm alone", "result": 60, "unit": "%"}, {"measurement": "Expectation value(%)", "setting": "[3]; 500 ppm alone", "result": 40, "unit": "%"}, {"measurement": "Expectation value(%)", "setting": "[3]; 1000 ppm alone", "result": 60, "unit": "%"}]}
